Laboratory results published in patent publication US7462605B2, “Phosphoramidate compounds and methods of use” (Celmed Oncology (USA), Inc., priority 2002, dated 2008).
Like-named read-outs stand apart in the source and are kept apart here.

Assays:
[1] = test system: MCF7TDX cells; test: 384-well interaction screening assay (alamarBlue) with NB1011, MCF7TDX; assay type: cell-based, human; conditions: drug combined with NB1011, MCF7TDX, 384-well alamarBlue, 5-day
Experimental: Cell lines: Normal human colon epithelial cells (CCD18co) and skin fibroblasts (Det55 1) were purchased from ATCC (Rockville,Md.). MCF7TDX, human breast carcinoma cells resistant to 2 μM Tomudex were obtained from Dr. Patrick Johnston, Queens University, Belfast. […] The MCF7TDX and the H630R10 cell lines have been previously described in Drake, J. C. et al. (1996) and Copur, S. et al. (1995) respectively.
Culture Conditions: All cells were cultured under standard conditions of 37° C., 95% humidified air, 5% CO2 in RPMI 1640 culture medium containing 10% fetal calf serum (Life Technologies) and penicillin/streptomycin/fungizone. […] The medium was renewed or the cells were passaged about every three days to maintain optimal growth conditions. […]
Cytotoxicity Studies: 384-well interaction screening assay. […] Following a 5-day incubation, the redox indicator dye, alamarBlue (AccuMed International, Westlake, Ohio) was added to each well at a 10% v/v ratio, and fluorescence was monitored at 535 excitation, 595 emission. Cytotoxic effect levels and drug interactions were assessed by the combination index method (Chou, T. C. and Talalay, P. (1984) and Bible, K. C. et al. (1997)), described briefly below. […] Sigmoid curves were fit according to the Hill inhibitory Emax model, and IC50 calculated as the average of three or more separate determinations. […]

[2] = test system: CCD18co normal colon epithelial cells; test: alamarBlue growth inhibition, CCD18co; assay type: cell-based, human; conditions: Homo sapiens, CCD-18Co; Normal Cells: CCD1800 (Colon); alamarBlue, 120 hours
Experimental: (§1) Growth Inhibition Studies. Cells growing exponentially were transferred to 384-well flat bottom tissue culture plates. All cell types were plated at a density of 500 cells per well in 25 μL of complete medium (RPMI 1640+10% fetal bovine serum+antibiotics/antimycotics). After 24 hours (day 0), 25 μL of complete medium containing the experimental compounds over the dose range of 10^ñ3 to 10^ñ10 M were added in triplicate. […] 5 μL of the redox indicator, alamarBlue, was added to each well (10% v/v). After 4 hours incubation at 37° C., fluorescence was monitored at 535 nm excitation and 595 nm emission.
(§2) Concentration vs. relative fluorescence units (RFU) were plotted, and sigmoid curves were fit using the Hill equation.

[3] = test system: DET551 (Skin) normal cells; test: alamarBlue growth inhibition, DET551; assay type: cell-based, human; conditions: Homo sapiens, 120 hours
Experimental: as §1, §2

[4] = test system: NHDF (Skin) normal cells; test: alamarBlue growth inhibition, NHDF; assay type: cell-based, human; conditions: Homo sapiens, 120 hours
Experimental: as §1, §2

[5] = test system: H527 (Skin) normal cells; test: alamarBlue growth inhibition, H527; assay type: cell-based, human; conditions: Homo sapiens, 120 hours
Experimental: as §1, §2

[6] = test system: W138 (Lung) normal cells; test: alamarBlue growth inhibition, W138; assay type: cell-based, human; conditions: Homo sapiens, 120 hours
Experimental: as §1, §2

[7] = test system: MRC9 (Lung) normal cells; test: alamarBlue growth inhibition, MRC9; assay type: cell-based, human; conditions: Homo sapiens, 120 hours
Experimental: as §1, §2

[8] = test system: NHLF (Lung) normal cells; test: alamarBlue growth inhibition, NHLF; assay type: cell-based, human; conditions: Homo sapiens, 120 hours
Experimental: as §1, §2

[9] = test system: NHA (Brain) normal cells; test: alamarBlue growth inhibition, NHA; assay type: cell-based, human; conditions: Homo sapiens, 120 hours
Experimental: as §1, §2

[10] = test system: NHOST (Bone) normal cells; test: alamarBlue growth inhibition, NHOST; assay type: cell-based, human; conditions: Homo sapiens, 120 hours
Experimental: as §1, §2

[11] = test system: NPRSC (Prostate) normal cells; test: alamarBlue growth inhibition, NPRSC; assay type: cell-based, human; conditions: Homo sapiens, 120 hours
Experimental: as §1, §2

[12] = test system: NHEPF (Liver) normal cells; test: alamarBlue growth inhibition, NHEPF; assay type: cell-based, human; conditions: Homo sapiens, 120 hours
Experimental: as §1, §2

[13] = test system: H630R10 5FU-resistant colon tumor cells; test: alamarBlue growth inhibition, H630R10; assay type: cell-based, human; conditions: Homo sapiens; Tumor Cells: H630R10 (Colon); alamarBlue, 120 hours; read-out: IC50
Experimental: as §1, §2

[14] = test system: HT1080 (Colon) tumor cells; test: alamarBlue growth inhibition, HT1080; assay type: cell-based, human; conditions: Homo sapiens, HT-1080, 120 hours
Experimental: as §1, §2

[15] = test system: COLO320 (Colon) tumor cells; test: alamarBlue growth inhibition, COLO320; assay type: cell-based, human; conditions: Homo sapiens, COLO 320, 120 hours
Experimental: as §1, §2

[16] = test system: COLO205 (Colon) tumor cells; test: alamarBlue growth inhibition, COLO205; assay type: cell-based, human; conditions: Homo sapiens, COLO 205, 120 hours
Experimental: as §1, §2

[17] = test system: SW620 (Colon) tumor cells; test: alamarBlue growth inhibition, SW620; assay type: cell-based, human; conditions: Homo sapiens, SW-620, 120 hours
Experimental: as §1, §2

[18] = test system: SKCO1 (Colon) tumor cells; test: alamarBlue growth inhibition, SKCO1; assay type: cell-based, human; conditions: Homo sapiens, SK-CO-1, 120 hours
Experimental: as §1, §2

[19] = test system: HCTC (Colon) tumor cells; test: alamarBlue growth inhibition, HCTC; assay type: cell-based, human; conditions: Homo sapiens, 120 hours
Experimental: as §1, §2

[20] = test system: MDAMB361 (Breast) tumor cells; test: alamarBlue growth inhibition, MDAMB361; assay type: cell-based, human; conditions: Homo sapiens, MDA-MB-361, 120 hours
Experimental: as §1, §2

[21] = test system: MDAMB468 (Breast) tumor cells; test: alamarBlue growth inhibition, MDAMB468; assay type: cell-based, human; conditions: Homo sapiens, MDA-MB-468, 120 hours
Experimental: as §1, §2

[22] = test system: SW527 (Breast) tumor cells; test: alamarBlue growth inhibition, SW527; assay type: cell-based, human; conditions: Homo sapiens, 120 hours
Experimental: as §1, §2

[23] = test system: NCI H520 (Lung) tumor cells; test: alamarBlue growth inhibition, NCI H520; assay type: cell-based, human; conditions: Homo sapiens, 120 hours
Experimental: as §1, §2

[24] = test system: SKLU1 (Lung) tumor cells; test: alamarBlue growth inhibition, SKLU1; assay type: cell-based, human; conditions: Homo sapiens, SK-LU-1, 120 hours
Experimental: as §1, §2

[25] = test system: SOAS2 (Bone) tumor cells; test: alamarBlue growth inhibition, SOAS2; assay type: cell-based, human; conditions: Homo sapiens, 120 hours
Experimental: as §1, §2

[26] = test system: PANC1 (Pancreas) tumor cells; test: alamarBlue growth inhibition, PANC1; assay type: cell-based, human; conditions: Homo sapiens, PANC-1, 120 hours
Experimental: as §1, §2

[27] = test system: SKOV3 (Ovary) tumor cells; test: alamarBlue growth inhibition, SKOV3; assay type: cell-based, human; conditions: Homo sapiens, SK-OV-3, 120 hours
Experimental: as §1, §2

[28] = test system: PC3 (Prostate) tumor cells; test: alamarBlue growth inhibition, PC3; assay type: cell-based, human; conditions: Homo sapiens, 120 hours
Experimental: as §1, §2

[29] = test system: HEPG2 (Liver) tumor cells; test: alamarBlue growth inhibition, HEPG2; assay type: cell-based, human; conditions: Homo sapiens, 120 hours
Experimental: as §1, §2

[30] = test system: SKHEP1 (Liver) tumor cells; test: alamarBlue growth inhibition, SKHEP1; assay type: cell-based, human; conditions: Homo sapiens, SK-HEP1, 120 hours
Experimental: as §1, §2

[31] = test system: A431 (Skin) tumor cells; test: alamarBlue growth inhibition, A431; assay type: cell-based, human; conditions: Homo sapiens, A-431, 120 hours
Experimental: as §1, §2

[32] = test system: MCIxc (Brain) tumor cells; test: alamarBlue growth inhibition, MCIxc; assay type: cell-based, human; conditions: Homo sapiens, MC-IXC, 120 hours
Experimental: as §1, §2

[33] = test system: normal and tumor cell types; test: cells; conditions: Homo sapiens
Experimental: Growth Inhibition Studies. Cells growing exponentially were transferred to 384-well flat bottom tissue culture plates. All cell types were plated at a density of 500 cells per well in 25 μL of complete medium (RPMI 1640+10% fetal bovine serum+antibiotics/antimycotics). After 24 hours (day 0), 25 μL of complete medium containing the experimental compounds over the dose range of 10^ñ3 to 10^ñ10 M were added in triplicate. Drug exposure time was 120 hours (day 5), after which growth inhibition was assayed. 5 μL of the redox indicator, alamarBlue, was added to each well (10% v/v). After 4 hours incubation at 37° C., fluorescence was monitored at 535 nm excitation and 595 nm emission.
as §2
Assays were carried out as described in Methods, above. Therapeutic index is calculated as the ratio of the average IC50 for normal cells to the average IC50 for tumor cells. All assays were done at least three times.

[34] = H630-10 5-FU resistant colon carcinoma xenografts in athymic mice; conditions: female, CD-1 (nu/nu) athymic, mouse, in vivo, ip
Experimental: Tumor measurements began on the first day of treatment (Day 1).
Following cell expansion ex-vivo H630-10 were injected subcutaneously (S.Q.) at 1.5×10^7 cells/tumor in the mid-back region of 4-6 week old, female, CD-1 (nu/nu), athymic mice (Charles River Laboratories, Wilmington, Mass.). Tumor volumes, calculated as the product of length, width, and depth, were monitored twice weekly by serial micrometer measurements by a single observer. Six animals were randomly assigned to each treatment group and statistical tests were performed (single-factor ANOVA) to assure uniformity in starting tumor volumes between treatment and control groups at the beginning of the experiment. […] To assure accurate dosing, drug doses were individualized based upon animal weights determined immediately prior to each injection. […] Differences in day 25 xenograft volumes between groups were analyzed by single-factor ANOVA of the log transformed tumor volume data.

[35] = test system: C/HT1080 cells; test: alamarBlue cytotoxicity, control-transfected HT1080; assay type: cell-based, human; conditions: C/HT1080, TS Level 100%
Experimental: (§3) Cell lines and transfection. HT1080 cells were grown in PRM11640 medium supplemented with 10% fetal calf serum, and transfected with GFP-TS expression vector. 48 hours after, transfection cells were tripsinized and replated in culture medium containing 750 μg/ml G418. After selection with G418 for two weeks, surviving cells were sorted based upon fluorescence expression. One clone with higher fluorescence expression (named as TSH/HT1080) and one clone with lower fluorescence expression (named as TSL/HT1080) were selected and expanded into cells lines. The stable HT1080 cells transfected with pEGFP-C3 were used as control.
(§4) Construction of GFP-TS expression vector. […] The cDNA was cloned into HindIII and KpnI sites of mammalian expression vector pEGFP-C3 (Clontech Laboratories. Inc., Palo Alto, Calif.), in-frame with GFP sequence. The cDNA insert was confirmed by DNA sequencing.
(§5) Growth Inhibition Studies. Cells growing exponentially were transferred to 384-well flat bottom tissue culture plates. All cell types were plated at a density of 500 cells per well in 25 μL of complete medium (RPMI 1640+10% fetal bovine serum+antibiotics/antimycotics). […] After 4 hours incubation at 37° C., fluorescence was monitored at 535 nm excitation and 595 nm emission.
as §2

[36] = test system: TSL/HT1080 cells; test: alamarBlue cytotoxicity, HT1080 expressing low GFP-TS; assay type: cell-based, human; conditions: TSL/HT1080, TS Level 409%
Experimental: as §3, §4, §5, §2

[37] = test system: TSH/HT1080 cells; test: alamarBlue cytotoxicity, HT1080 expressing high GFP-TS; assay type: cell-based, human; conditions: second line printed TSL/HT1080, TS Level 702%
Experimental: as §3, §4, §5, §2

[38] = test system: CCD18co normal colon epithelial cells; test: Thymidine rescue, alamarBlue cytotoxicity; assay type: cell-based, human
Excerpt: An additional approach was taken to understanding whether NB1011 might interfere with cell growth primarily by inactivating TS. This approach is based upon thymidine rescue of TS-blocked cells. […] For this reason, they survive only by scavenger mechanisms. One of the important scavenger mechanisms is utilization of extracellular thymidine. Thymidine incorporated by target cells can be converted to dTMP, usually by thymidine kinase, and thus continue DNA synthesis. Other pathways for use of exogenous thymidine have also been described If an important mechanism for NB1011 activity is via inhibition of endogenous TS, then the cytotoxicity should be relieved when thymidine is added to the cell culture media. For this experiment, a number of tumor cell lines were screened for their sensitivity to Tomudex and 5FdUrd, and ability to be rescued from these agents via thymidine supplementation. […] Experiments were carried out as described by (Patterson, et al. (1998)) with or without 10 μM thymidine, except that the alamarBlue assay was employed to determine cytotoxicity.

Structure (SMILES): N.N.[Cl][Pt][Cl] [Cisplatin]
- Combination Index ± s.e.m. [1]: 1.51 ± 0.35

Structure (SMILES): CCc1c2c(nc3ccc(OC(=O)N4CCC(N5CCCCC5)CC4)cc13)-c1cc3c(c(=O)n1C2)COC(=O)[C@]3(O)CC [Irinotecan]
- Combination Index ± s.e.m. [1]: 1.36 ± 0.38

Structure (SMILES): O=c1[nH]cc(F)c(=O)[nH]1 [5FU, 5-fluorouracil]
- IC50 [2]: 2000 nM
- IC50 [3]: 800 nM
- IC50 [4]: 800 nM
- IC50 [5]: 1600 nM
- IC50 [6]: 1000 nM
- IC50 [7]: 1100 nM
- IC50 [8]: 900 nM
- IC50 [9]: 900 nM
- IC50 [10]: 4700 nM
- IC50 [11]: 1700 nM
- IC50 [12]: 1700 nM
- IC50 [13]: 41600 nM
- IC50 [14]: 800 nM
- IC50 [15]: 1500 nM
- IC50 [16]: 1300 nM
- IC50 [17]: 4600 nM
- IC50 [18]: 1400 nM
- IC50 [19]: 2800 nM
- IC50 [20]: 5000 nM
- IC50 [21]: 4400 nM
- IC50 [22]: 4300 nM
- IC50 [23]: 600 nM
- IC50 [24]: 7900 nM
- IC50 [25]: 1400 nM
- IC50 [26]: 1900 nM
- IC50 [27]: 3000 nM
- IC50 [28]: 900 nM
- IC50 [29]: 22800 nM
- IC50 [30]: 1700 nM
- IC50 [31]: 200 nM
- IC50 [32]: 1200 nM
- IC50 ([33]; read-out: IC50 (μM), Average, average of the 11 normal cell types): 1.6 µM
- IC50 ([33]; read-out: IC50 (μM), Average, average of the 21 tumor cell lines): 5.3 µM
- MTD at 5 days [34]: 15 mg/kg

Structure (SMILES): O=c1[nH]c(=O)n([C@H]2C[C@H](O)[C@@H](CO)O2)cc1F [FUDR]
- IC50 [35]: < 100 nM
- IC50 [36]: 2200 nM
- IC50 [37]: 3100 nM
- IC50 ([38]; in the presence of 10 μM thymidine): > 5900 nM
- IC50 ([38]; without thymidine): < 10 nM
